The text below walks through data of patent US20210386721A1, “SUBSTITUTED PHENYLPROPENYL PYRIDINE DERIVATIVES, THEIR PREPARATION AND PHARMACEUTICAL APPLICATIONS” (SHANGHAI HAIYAN PHARMACEUTICAL TECHNOLOGY CO., LTD., priority 2019, published 2021).

As usually defined, the EC50 is the midpoint of the concentration-response curve. The low end stands for an effect from little substance, the high end for a need for much substance. By IC50 is commonly meant the concentration that gives 50% inhibition. Higher therefore signals lower potency.

The subject of assay [1] is Jurkat T(PD1 Luc-)/CHOK1(PDL-1). In words: Jurkat T(PD1 Luc-)/CHOK1(PDL-1) cell experiment (luciferase reporter). The format is cell-based. Particulars: CHO/PD-L1-OKT3 cells co-cultured with Jurkat/PD1-NFAT-Luc cells for 6 hours; Bio-Glo luciferase signal. As for the experimental part:
Assay 2 Jurkat T(PD1 Luc-)/CHOK1(PDL-1) Cell Experiment
G418, Sangon Biotech #A100859-0001, Cat Number G108BA0003, 5 ml of deionized water being added into each bottle, store at 4° C.
CHO/PD-L1-OKT3 cells (constructed by referring to Promega's PD-1/PD-L1 Blockade Bioassays system) cultured in F-12K medium (containing 10% FBS, 800 ug/ml G418, 400 ug/ml D Hygromycin B) were planted into a 96-well plate at 2×10^4 per well, and incubated for 24 hours at 37° C. and 5% CO2. part of the medium was removed, and the test compound dissolved in DMSO with a final concentration of 1 uM was added, and DMSO at the same concentration was added into the control cells. Jurkat/PD1-NFAT-Luc cells (constructed by referring to Promega's PD-1/PD-L1 Blockade Bioassays system) were added at 5×10^5 per well at the same time, and cultured for 6 hours. The corresponding luciferase signal was detected by Bio-Glo™ (Promega, G7940) reagent. The EC50 of each compound to be tested was calculated through the non-linear regression of XLfit software.
A general note: A reporter such as luciferase makes a cellular process visible.

The next assay deals with T1, PD-1/PD-L1 (Homo sapiens, UniProt Q9NZQ7).
T1 construct: purchased Cisbio 63ADK000CPDPEB
T1 sequence (Q9NZQ7 19-238 limits assumed): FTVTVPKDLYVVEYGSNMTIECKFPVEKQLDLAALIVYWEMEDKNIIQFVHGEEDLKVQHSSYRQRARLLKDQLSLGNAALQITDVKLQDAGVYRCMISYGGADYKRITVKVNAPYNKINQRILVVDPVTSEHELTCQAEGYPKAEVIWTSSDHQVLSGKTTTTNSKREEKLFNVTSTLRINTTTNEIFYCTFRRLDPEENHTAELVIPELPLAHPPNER
Kind of assay: PD-1/PD-L1 binding assay (HTRF, PPI-HTRF). The conditions noted are these: HTRF PD1/PD-L1 binding assay kit; 10 nM Tag1-PD-L1; 25° C. In a few lines:
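HTRF binding assay: compound was mixed with tagged proteins at final concentrations of 10 nM Tag1-PD-L1 and 2 nM PD1 for 15 min at 25 °C. Anti-Tag1-Eu³⁺ and anti-Tag2-XL665 antibodies were then added for 16 h at 25 °C. IC50 was derived from the 665/620 nm emission ratio.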
Background: Time-resolved FRET reads energy transfer from a long-lived donor to a nearby acceptor.

With `COc1cc(/C=C/c2cccc(-c3cccc(-c4nc5c(c(OC)n4)CN(C[C@@H]4CCC(=O)N4)CC5)c3C)c2C)c(C(F)(F)F)cc1CN1CC[C@@H](C(=O)O)C1` [Z-60, (R)-1-(2-methoxy-4-((E)-2-(3′-(4-methoxy-6-(((S)-5-oxopyrrolidin-2-yl)methyl)-5,6,7,8-tetrahydropyrido[4,3-d]pyrimidin-2-yl)-2,2′-dimethyl-[1,1′-biphenyl]-3-yl)vinyl)-5-(trifluoromethyl)benzyl) pyrrolidine-3-carboxylic Acid], the EC50 in assay [1] was determined as 79 nM. Also, the IC50 at PD-1/PD-L1 was 2 nM.
Taken in the same sequence, the figures for `COc1cc(/C=C/c2nccc(-c3cccc(NC(=O)c4ccc(CN5CC[C@@H](O)C5)cn4)c3C)c2C#N)c(C(F)(F)F)cc1CN1CC[C@@H](C(=O)O)C1` [Z-74] were 51 nM and 1 nM.
`Cc1cc(/C=C/c2nccc(-c3cccc(NC(=O)c4ccc(CN5CC[C@@H](O)C5)cn4)c3Cl)c2C)c(Cl)cc1CN1CC[C@@H](C(=O)O)C1` [Z-76] yielded an EC50 in assay [1] of 361 nM. This compound also showed a concentration for half-maximal inhibition (IC50) on PD-1/PD-L1 of 1 nM.
In turn, `COc1cc(/C=C/c2cccc(-c3cccc(NC(=O)c4ccc(CN5CC[C@@H](O)C5)cn4)c3Cl)c2C)c(C(F)(F)F)cc1CN1CC[C@@H](C(=O)O)C1` [Z-80] came in with an EC50 in assay [1] of 36 nM. The half-maximal inhibitory concentration (IC50) on PD-1/PD-L1 was found to be 1 nM.
Taken in the same sequence, the figures for `Cc1cc(/C=C/c2nccc(-c3cccc(NC(=O)c4ccc(CN5CC[C@@H](O)C5)cn4)c3Cl)c2C#N)c(Cl)cc1CN1CCCC[C@H]1C(=O)O` [Z-81] were 44 nM and 1 nM.
`COc1cc(/C=C/c2cccc(-c3cccc(NC(=O)c4ccc(CN5CC[C@@H](O)C5)cn4)c3Cl)c2C)c(C(F)(F)F)cc1CN1CCCC[C@H]1C(=O)O` [Z-82] came in with a concentration for a half-maximal effect (EC50) in assay [1] of 29 nM. On PD-1/PD-L1, this compound gave a concentration for half-maximal inhibition (IC50) of 1 nM.
In the same order, the values of `Cc1cc(/C=C/c2nccc(-c3cccc(NC(=O)c4ccc(CN5CC[C@@H](O)C5)cn4)c3C)c2Cl)c(Cl)cc1CN1CCCC[C@H]1C(=O)O` [Z-83] are 113 nM and 1 nM.
In the same order, the values of `COc1cc(/C=C/c2cccc(-c3cccc(NC(=O)c4ccc(CN5CC[C@@H](O)C5)cn4)c3C)c2C)c(C(F)(F)F)cc1CN1CC[C@@H](C(=O)O)C1` [Z-84] are 25 nM and 1 nM.
Taken in the same sequence, the figures for `COc1cc(/C=C/c2cccc(-c3cccc(NC(=O)c4ccc(CN5CC[C@@H](O)C5)cn4)c3C)c2Cl)c(C(F)(F)F)cc1CN1CC[C@@H](C(=O)O)C1` [Z-85] were 34 nM and 1 nM.
The compound `Cc1cc(/C=C/c2cccc(-c3cccc(NC(=O)c4ccc(CN5CC[C@@H](O)C5)cn4)c3C)c2C)c(Cl)cc1CN1CC[C@@H](C(=O)O)C1` [Z-86] came in with an EC50 in assay [1] of 38 nM. This compound registered an IC50 on PD-1/PD-L1 of 1 nM.
Taken in the same sequence, the figures for `COc1cc(/C=C/c2cccc(-c3cccc(NC(=O)c4ccc(CN5CC[C@@H](O)C5)cn4)c3Cl)c2C)c(C(F)(F)F)cc1CN1CCC(C)(C(=O)O)C1` (stereo partly drawn) [Z-87, 1-(4-((E)-2-(2′-chloro-3′-(5-(((R)-3-hydroxypyrrolidin-1-yl)methyl)picolinamido)-2-methyl-[1,1′-biphenyl]-3-yl)vinyl)-2-methoxy-5-(trifluoromethyl)benzyl)-3-methylpyrrolidine-3-carboxylic Acid] were 26 nM and 1 nM.
`COc1cc(/C=C/c2cccc(-c3cccc(NC(=O)c4ccc(CN5CC[C@@H](O)C5)cn4)c3Cl)c2C)c(C(F)(F)F)cc1CN1CCC(C(=O)O)CC1` [Z-89]: the EC50 in assay [1] was 16 nM. Moreover, the IC50 on PD-1/PD-L1 came to 1 nM.
In the same order, the values of `Cc1cc(/C=C/c2cccc(-c3cccc(NC(=O)c4ccc(CN5CC[C@@H](O)C5)cn4)c3C)c2C)c(C(F)(F)F)cc1CN1CC[C@@H](C(=O)O)C1` [Z-90] are 24 nM and 1 nM.
In the same order, the values of `Cc1cc(/C=C/c2cccc(-c3cccc(NC(=O)c4ccc(CN5CC[C@@H](O)C5)cn4)c3C)c2C)c(C2CC2)cc1CN1CC[C@@H](C(=O)O)C1` [Z-91] are 147 nM and 1 nM.
In the same order, the values of `COc1cc(/C=C/c2cccc(-c3cccc(NC(=O)c4ccc(CN5CC[C@@H](O)C5)cn4)c3Cl)c2C)c(C(F)(F)F)cc1CN1CCC[C@H]1C(=O)O` [Z-92] are 6 nM and 1 nM.
As to `COc1cc(/C=C/c2cccc(-c3cccc(NC(=O)c4ccc(CN5CC[C@@H](O)C5)cn4)c3Cl)c2Cl)c(C(F)(F)F)cc1CN1CC[C@@H](C(=O)O)C1` [Z-93], in assay [1], the half-maximal effective concentration (EC50) was 8 nM. The IC50 at PD-1/PD-L1 worked out at 2 nM.
Taken in the same sequence, the figures for `COc1cc(/C=C/c2cccc(-c3cccc(NC(=O)c4ccc(CN5CC[C@@H](O)C5)cn4)c3C)c2C#N)c(C(F)(F)F)cc1CN1CC[C@@H](C(=O)O)C1` [Z-94] were 10 nM and 1 nM.
Taken in the same sequence, the figures for `COc1cc(/C=C/c2cccc(-c3cccc(NC(=O)c4ccc(CN5CC[C@@H](O)C5)cn4)c3Cl)c2C#N)c(C(F)(F)F)cc1CN1CC[C@@H](C(=O)O)C1` [Z-95] were 4 nM and less than 1 nM.
In the same order, the values of `COc1cc(/C=C/c2cccc(-c3cccc(NC(=O)c4ccc(CN5CC[C@@H](O)C5)cn4)c3F)c2Cl)c(C(F)(F)F)cc1CN1CC[C@@H](C(=O)O)C1` [Z-96] are 10 nM and less than 1 nM.
For the compound `COc1cc(/C=C/c2cccc(-c3cccc(NC(=O)c4ccc(CN5CC[C@@H](O)C5)cn4)c3C)c2C)c(C(F)(F)F)cc1CN1CC[C@H](C(=O)O)C1` [Z-97], the EC50 in assay [1] came out at 2 nM. Besides, the half-maximal inhibitory concentration (IC50) at PD-1/PD-L1 is less than 1 nM.
Taken in the same sequence, the figures for `COc1cc(/C=C/c2cccc(-c3cccc(NC(=O)c4ccc(CN5CC[C@@H](O)C5)cn4)c3C(F)(F)F)c2C#N)c(C(F)(F)F)cc1CN1CC[C@@H](C(=O)O)C1` [Z-98] were 174 nM and 2 nM.
Taken in the same sequence, the figures for `COc1cc(/C=C/c2cccc(-c3cccc(NC(=O)c4ccc(CN5CC[C@@H](O)C5)cn4)c3Cl)c2F)c(C(F)(F)F)cc1CN1CC[C@@H](C(=O)O)C1` [Z-99] were 35 nM and less than 1 nM.
In assay [1], `Cc1cc(/C=C/c2nccc(-c3cccc(NC(=O)c4ccc(CN5CC[C@@H](O)C5)cn4)c3C)c2C#N)c(C(F)(F)F)cc1CN1CC[C@@H](C(=O)O)C1` [Z-101] showed an EC50 of 122 nM. The same compound returned an IC50 on PD-1/PD-L1 of 1 nM.
In the same order, the values of `COc1cc(/C=C/c2cccc(-c3cccc(NC(=O)c4ccc(CN5CC[C@@H](O)C5)cn4)c3C)c2C)c(C(F)(F)F)cc1CN1CCCC[C@H]1C(=O)O` [Z-102] are 9 nM and 1 nM.
Taken in the same sequence, the figures for `COc1cc(/C=C/c2cccc(-c3cccc(NC(=O)c4ccc(CN5CC[C@@H](O)C5)cn4)c3C)c2C)c(C(F)(F)F)cc1CN1CCC(C)(C(=O)O)C1` (some centres unmarked) [Z-103] were 19 nM and 1 nM.
Taken in the same sequence, the figures for `COc1cc(/C=C/c2cccc(-c3cccc(NC(=O)c4ccc(CN5CC[C@@H](O)C5)cn4)c3C#N)c2C)c(C(F)(F)F)cc1CN1CC[C@@H](C(=O)O)C1` [Z-105] were 14 nM and 1 nM.
In turn, `COc1cc(/C=C/c2cccc(-c3cccc(NC(=O)c4ccc(CN5CC[C@@H](O)C5)cn4)c3C)c2C)c(C(F)(F)F)cc1CN1CCCC(C(=O)O)C1` (some centres unmarked) [Z-106] yielded a concentration giving a half-maximal response (EC50) in assay [1] of 20 nM. This compound also came in with a concentration for half-maximal inhibition (IC50) on PD-1/PD-L1 of 1 nM.
In the same order, the values of `COc1cc(/C=C/c2cccc(-c3cccc(NC(=O)c4ccc(CN5CC[C@@H](O)C5)cn4)c3Cl)c2C)c(C(F)(F)F)cc1CNC[C@@H](O)CC(=O)O` [Z-107] are 16 nM and 1 nM.
